This is an account of results in US10752612B2, “PLK4 inhibitors” (LUDWIG INSTITUTE FOR CANCER RESEARCH LTD, priority 2015, dated 2020).

In this assay the target is T1, human Plk4 kinase domain (aa 2-275) (Homo sapiens, UniProt O00444).
T1 construct: purified 6×His-tagged human Plk4 kinase domain (aa 2-275); 6xHis; made in house; host or cells: E. coli
T1 sequence (O00444 2-275): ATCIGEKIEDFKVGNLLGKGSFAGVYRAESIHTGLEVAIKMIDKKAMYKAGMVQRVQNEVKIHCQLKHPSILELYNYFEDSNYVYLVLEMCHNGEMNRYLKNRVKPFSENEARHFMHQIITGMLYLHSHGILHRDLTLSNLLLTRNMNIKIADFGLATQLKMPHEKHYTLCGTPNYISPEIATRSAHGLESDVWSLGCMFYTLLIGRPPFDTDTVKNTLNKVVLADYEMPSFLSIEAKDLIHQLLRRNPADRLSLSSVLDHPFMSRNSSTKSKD
As to the kind of experiment: Plk4 kinase assay (ADP-Glo). The format is biochemical. To be noted: Table 1. A digest of the protocol:
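Enzyme at 2.5-10 nM final, pH 8.0, reacted 4-16 hours at 25° C; ADP generation read by ADP-Glo luminescence. Ki derived from IC50 by Cheng-Prusoff or, for tight binders, Copeland formalism.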
On the technique in general: ADP-Glo first removes unused ATP, then detects ADP through luciferase.
The term IC50 denotes the concentration that inhibits the measured activity by half. Read a high IC50 as weaker potency in that assay. Molecule `Cc1cc(Nc2nc(Sc3ccc(NC(=O)C4CC4)cc3)nc(N(C)C)c2C)n[nH]1` had an IC50 of less than 1000 nM.

In the case of `CCN(C)c1nc(Sc2ccc(NC(=O)C3CC3)cc2)nc(Nc2cc(C)[nH]n2)c1C`, the IC50 is less than 1000 nM.

`CCN(CC)c1nc(Sc2ccc(NC(=O)C3CC3)cc2)nc(Nc2cc(C)[nH]n2)c1C` displayed an IC50 of less than 1000 nM.

`Cc1cc(Nc2nc(Sc3ccc(NC(=O)C4CC4)cc3)nc(Cl)c2C)n[nH]1` gave a half-maximal inhibitory concentration (IC50) of less than 1000 nM.

`Cc1cc(Nc2nc(Sc3ccc(NC(=O)C4CC4)cc3)nc(N(C)CCN(C)C)c2C)n[nH]1`: the IC50 was less than 1000 nM.

In the case of `Cc1cc(Nc2nc(Sc3ccc(NC(=O)C4CC4)cc3)nc(NCCN(C)C)c2C)n[nH]1`, the IC50 was less than 1000 nM.

`CNCCN(C)c1nc(Sc2ccc(NC(=O)C3CC3)cc2)nc(Nc2cc(C)[nH]n2)c1C` registered a half-maximal inhibitory concentration (IC50) of less than 1000 nM.

Regarding `COC(=O)Nc1ccc(Sc2nc(Nc3cc(C)[nH]n3)c(C)c(N3CCCCC3)n2)cc1`, the IC50 was less than 1000 nM.

As for `CC(=O)Nc1ccc(Sc2nc(Nc3cc(C)[nH]n3)c(C)c(N3CCC(F)(F)CC3)n2)cc1`, the IC50 is less than 1000 nM.

In turn, `CC(=O)Nc1ccc(Sc2nc(Nc3cc(C)[nH]n3)c(C)c(N3CCC(F)CC3)n2)cc1` gave an IC50 of less than 1000 nM.

Turning to `COc1c(Nc2cc(C)[nH]n2)nc(Sc2ccc(S(=O)(=O)Cc3ccccc3)cc2)nc1N1CCC(CCN2CCN(C)CC2)CC1`, the half-maximal inhibitory concentration (IC50) is less than 1000 nM.

`COc1c(Nc2cc(C)[nH]n2)nc(Sc2ccc(S(=O)(=O)Cc3ccccc3)cc2)nc1N1CCN(CCN2CCCCCC2)CC1`: the IC50 was less than 1000 nM.

`COc1c(Nc2cc(C)[nH]n2)nc(Sc2ccc(NC(C)=O)cc2)nc1N1CCN(C2CCN(C)CC2)CC1`: the IC50 is less than 1000 nM.

In turn, `COc1c(Nc2cc(C)[nH]n2)nc(Sc2ccc(NC(C)=O)cc2)nc1N1CCN(C)CC1` yielded a half-maximal inhibitory concentration (IC50) of less than 1000 nM.

`CCOc1c(Nc2cc(C)[nH]n2)nc(Sc2ccc(NC(C)=O)cc2)nc1N1CCN(C2CCN(C)CC2)CC1` returned an IC50 of 100 to 1000 nM.

Turning to `CC(=O)Nc1ccc(Sc2nc(Nc3cc(C)[nH]n3)c(Cl)c(N3CCCCC3)n2)cc1`, the IC50 is less than 1000 nM.

The molecule `Cc1cc(Nc2nc(Sc3ccc(N(C)C)cc3)nc(N3CCCCC3)c2C)n[nH]1` gave an IC50 of less than 1000 nM.

Consider `CC(=O)Nc1ccc(Sc2nc(Nc3cc(C)[nH]n3)cc(N3CCCCC3)n2)cc1`, for which the IC50 is less than 1000 nM.

`COc1c(Nc2cc(C)[nH]n2)nc(Sc2ccc(NC(C)=O)cc2)nc1N1CCNCC1` had an IC50 of less than 1000 nM.

With `CCN(CC)c1nc(Sc2ccc(NC(C)=O)cc2)nc(Nc2cc(C)[nH]n2)c1OC`, the IC50 is less than 1000 nM.

`CCN(C)c1nc(Sc2ccc(NC(C)=O)cc2)nc(Nc2cc(C)[nH]n2)c1OC` returned an IC50 of less than 1000 nM.

`COc1c(Nc2cc(C)[nH]n2)nc(Sc2ccc(NC(C)=O)cc2)nc1N(C)C`: the IC50 was less than 1000 nM.

For the molecule `COc1c(Nc2cc(C)[nH]n2)nc(Sc2ccc(NC(C)=O)cc2)nc1N1CCOCC1`, the IC50 was less than 1000 nM.

The molecule `COc1c(Nc2cc(C)[nH]n2)nc(Sc2ccc(NC(C)=O)cc2)nc1N1CCN(C(C)=O)CC1` returned an IC50 of less than 1000 nM.

The molecule `COCCN1CCN(c2nc(Sc3ccc(NC(C)=O)cc3)nc(Nc3cc(C)[nH]n3)c2OC)CC1` yielded an IC50 of less than 1000 nM.

With `COc1c(Nc2cc(C)[nH]n2)nc(Sc2ccc(NC(C)=O)cc2)nc1N1CCCC1`, the IC50 is less than 1000 nM.

`COc1c(Nc2cc(C)[nH]n2)nc(Sc2ccc(NC(C)=O)cc2)nc1N1CCCCCC1` came in with an IC50 of 100 to 1000 nM.

In turn, `COc1c(Nc2cc(C)[nH]n2)nc(Sc2ccc(NC(C)=O)cc2)nc1N1CCC(C)CC1` displayed an IC50 of 100 to 1000 nM.

Take `COc1c(Nc2cc(C)[nH]n2)nc(Sc2ccc(NC(C)=O)cc2)nc1N(C)C(C)C`: the IC50 was less than 1000 nM.

For the molecule `CC(=O)Nc1ccc(Sc2nc(Nc3cc(C)[nH]n3)c(C)c(N3CCCCC3C)n2)cc1` (stereo not shown), the 50% inhibitory concentration (IC50) is less than 1000 nM.

For `CCN1CCN(c2nc(Sc3ccc(NC(C)=O)cc3)nc(Nc3cc(C)[nH]n3)c2C)CC1`, the IC50 was less than 1000 nM.

`COCC(=O)N1CCN(c2nc(Sc3ccc(NC(C)=O)cc3)nc(Nc3cc(C)[nH]n3)c2OC)CC1` had a half-inhibitory concentration (IC50) of less than 1000 nM.

Regarding `COc1c(Nc2cc(C)[nH]n2)nc(Sc2ccc(NC(C)=O)cc2)nc1N1CCC(F)(F)CC1`, the IC50 is less than 1000 nM.

Regarding `COc1c(Nc2cc(C)[nH]n2)nc(Sc2ccc(NC(C)=O)cc2)nc1N1CCC(F)CC1`, the half-maximal inhibitory concentration (IC50) was less than 1000 nM.

The molecule `COc1c(Nc2cc(C)[nH]n2)nc(Sc2ccc(NC(C)=O)cc2)nc1N1CCC(O)CC1` returned an IC50 of less than 1000 nM.

On to `COc1c(Nc2cc(C)[nH]n2)nc(Sc2ccc(NC(C)=O)cc2)nc1N1CC=CCC1`, for which the IC50 is less than 1000 nM.

The molecule `COc1c(Nc2cc(C)[nH]n2)nc(Sc2ccc(NC(C)=O)cc2)nc1N1CC=C(F)CC1` displayed an IC50 of less than 1000 nM.

For `COc1c(Nc2cc(C)[nH]n2)nc(Sc2ccc(NC(C)=O)cc2)nc1N1CCC(C(C)=O)CC1`, the IC50 was less than 1000 nM.

Molecule `COc1c(Nc2cc(C)[nH]n2)nc(Sc2ccc(NC(C)=O)cc2)nc1N1CCC(N)CC1` had an IC50 of less than 1000 nM.

`COc1c(Nc2cc(C)[nH]n2)nc(Sc2ccc(NC(C)=O)cc2)nc1N1CCC(N(C)C)CC1` gave an IC50 of less than 1000 nM.

For `CC(=O)Nc1ccc(Sc2nc(Nc3cc(C)[nH]n3)c(C)c(N3CCC(CCN(C)C)CC3)n2)cc1`, the IC50 is less than 1000 nM.

Turning to `COc1c(Nc2cc(C)[nH]n2)nc(Sc2ccc(NC(C)=O)cc2)nc1N1CCCCC1C` (stereo not shown), the IC50 lay within 100 to 1000 nM.

The molecule `CCN1CCN(c2nc(Sc3ccc(NC(C)=O)cc3)nc(Nc3cc(C)[nH]n3)c2OC)CC1` gave an IC50 of less than 1000 nM.

The molecule `COc1c(Nc2cc(C)[nH]n2)nc(Sc2ccc(NC(C)=O)cc2)nc1N1CCN(C(=O)C(C)C)CC1` gave an IC50 of less than 1000 nM.

The molecule `CCC(=O)N1CCN(c2nc(Sc3ccc(NC(C)=O)cc3)nc(Nc3cc(C)[nH]n3)c2OC)CC1` returned an IC50 of less than 1000 nM.

`COc1c(Nc2cc(C)[nH]n2)nc(Sc2ccc(S(=O)(=O)Cc3ccccc3)cc2)nc1N1CCN(C2CCN(C)CC2)CC1`: the IC50 was less than 1000 nM.

`COc1c(Nc2cc(C)[nH]n2)nc(Sc2ccc(S(=O)(=O)Cc3ccccc3)cc2)nc1N1CCC(N2CCN(C)CC2)CC1` displayed an IC50 of less than 1000 nM.

`CSc1nc(Nc2cc(C)[nH]n2)c(C)c(N2CCC(O)CC2)n1` yielded an IC50 of less than 1000 nM.

`CSc1nc(Nc2cc(C)[nH]n2)c(C)c(N2CCOCC2)n1` came in with an IC50 of less than 1000 nM.

`CC(=O)Nc1ccc(Sc2nc(Nc3cc(C)[nH]n3)c(C)c(N3CCN(C(C)C)CC3)n2)cc1` returned an IC50 of less than 1000 nM.

For the molecule `CC(=O)Nc1ccc(Sc2nc(Nc3cc(C)[nH]n3)c(C)c(N3CCN(C(=O)C(C)C)CC3)n2)cc1`, the IC50 is less than 1000 nM.

On to `CCC(=O)N1CCN(c2nc(Sc3ccc(NC(C)=O)cc3)nc(Nc3cc(C)[nH]n3)c2C)CC1`, for which the IC50 is less than 1000 nM.

In turn, `CNCC(=O)N1CCN(c2nc(Sc3ccc(NC(C)=O)cc3)nc(Nc3cc(C)[nH]n3)c2C)CC1` gave an IC50 of less than 1000 nM.

In turn, `CC(=O)Nc1ccc(Sc2nc(Nc3cc(C)[nH]n3)c(C)c(N3CCN(C(=O)CN(C)C)CC3)n2)cc1` returned an IC50 of less than 1000 nM.

Turning to `CNC1CCN(c2nc(Sc3ccc(NC(C)=O)cc3)nc(Nc3cc(C)[nH]n3)c2C)CC1`, the IC50 was less than 1000 nM.

`CC(=O)Nc1ccc(Sc2nc(Nc3cc(C)[nH]n3)c(C)c(N3CCC(C(C)=O)CC3)n2)cc1` displayed an IC50 of less than 1000 nM.

As to `COc1c(Nc2cc(C)[nH]n2)nc(Sc2ccc(NC(C)=O)cc2)nc1N1CCN(C(C)C)CC1`, the IC50 is less than 1000 nM.

In turn, `CNCC(=O)N1CCN(c2nc(Sc3ccc(NC(C)=O)cc3)nc(Nc3cc(C)[nH]n3)c2OC)CC1` came in with an IC50 of less than 1000 nM.

In turn, `COc1c(Nc2cc(C)[nH]n2)nc(Sc2ccc(NC(C)=O)cc2)nc1N1CCN(C(=O)CN(C)C)CC1` came in with a 50% inhibitory concentration (IC50) of less than 1000 nM.

In turn, `Cc1cc(Nc2nc(Sc3ccccc3)nc(N(C)C(C)C)c2C)n[nH]1` returned an IC50 of less than 1000 nM.

Consider `CNC(=O)Nc1ccc(Sc2nc(Nc3cc(C)[nH]n3)c(C)c(N3CCC(O)CC3)n2)cc1`, for which the IC50 is less than 1000 nM.

In turn, `CNC(=O)Nc1ccc(Sc2nc(Nc3cc(C)[nH]n3)c(C)c(N3CCOCC3)n2)cc1` gave a half-maximal inhibitory concentration (IC50) of less than 1000 nM.

The molecule `Cc1cc(Nc2nc(Sc3ccccc3)nc(N3CCC(O)CC3)c2C)n[nH]1` yielded an IC50 of less than 1000 nM.

On to `COc1c(Nc2cc(C)[nH]n2)nc(Sc2ccc(S(=O)(=O)Cc3ccccc3)cc2)nc1N1CCN(CCN2CCCC2)CC1`, for which the IC50 was less than 1000 nM.

As to `Cc1cc(Nc2nc(Sc3ccccc3)nc(N3CCOCC3)c2C)n[nH]1`, the IC50 was less than 1000 nM.

`CC(=O)Nc1ccc(Sc2nc(Nc3cc(C)[nH]n3)c(C)c(N3CCC(N)CC3)n2)cc1` gave an IC50 of less than 1000 nM.

As to `CC(=O)Nc1ccc(Sc2nc(Nc3cc(C)[nH]n3)c(C)c(N3CCC(N(C)C)CC3)n2)cc1`, the IC50 was less than 1000 nM.

Molecule `CC(=O)Nc1ccc(Sc2nc(Nc3cc(C)[nH]n3)c(C)c(N3CCC(C)(O)CC3)n2)cc1` returned an IC50 of less than 1000 nM.

`CCN(CC)c1nc(Sc2ccc(NC(C)=O)cc2)nc(Nc2cc(C)[nH]n2)c1C` yielded an IC50 of less than 1000 nM.

`Cc1cc(Nc2nc(Sc3ccc(N)cc3)nc(N3CCC(O)CC3)c2C)n[nH]1` showed an IC50 of less than 1000 nM.

As to `Cc1cc(Nc2nc(Sc3ccc(N)cc3)nc(N3CCOCC3)c2C)n[nH]1`, the 50% inhibitory concentration (IC50) was less than 1000 nM.

Molecule `COCC(=O)N1CCN(c2nc(Sc3ccccc3)nc(Nc3cc(C)[nH]n3)c2C)CC1` gave an IC50 of less than 1000 nM.

Consider `CSc1nc(Nc2cc(C)[nH]n2)c(C)c(N(C)C(C)C)n1`, for which the IC50 is less than 1000 nM.

In the case of `COc1c(Nc2cc(C)[nH]n2)nc(Sc2ccc(NC(C)=O)cc2)nc1N1CCC(CCN(C)C)CC1`, the IC50 was less than 1000 nM.

With `CNC(=O)Nc1ccc(Sc2nc(Nc3cc(C)[nH]n3)c(C)c(N(C)C(C)C)n2)cc1`, the IC50 was less than 1000 nM.

On to `CNC(=O)Nc1ccc(Sc2nc(Nc3cc(C)[nH]n3)c(C)c(N3CCN(C(=O)COC)CC3)n2)cc1`, for which the half-maximal inhibitory concentration (IC50) was less than 1000 nM.
